Data from patent US7074961B2, “Antidepressants and their analogues as long-acting local anesthetics and analgesics” (The Brigham and Women's Hospital, Inc., priority 2000, dated 2006).
Values joined by “and” are separate entries in the source; they are usually repeats but may differ in a detail not shown here. Identical values can stand only once. Like-named read-outs stand apart in the source and are kept apart here.

Assays:
rat sciatic nerve = assay: Rat sciatic nerve blockade with neurobehavioral examination (proprioception, motor function, nocifensive reaction); type: in vivo; conditions: for Development of sciatic nerve blockade after injection: all rats
Excerpt: Male Sprague-Dawley rats were purchased from Taconic Farm, Inc., Germantown, N.Y., and kept in animal housing facilities with controlled humidity (20-30% relative humidity), room temperature, and a 12-h (6:00 AM-6:00 PM) light-dark cycle. Rats were handled before behavioral testing to familiarize them with the experiment and to minimize stress-induced analgesia. At the time of injections, animals weighed approximately 250-300 g. The experimenter was blinded to the drug/concentration used.
For sciatic nerve blockade, rats were lightly anesthetized by inhalation of sevoflurane and the landmarks (greater trochanter and ischial tuberosity) of the left hind limb were localized. […] The right hind limb was used as a control.
Neurobehavioral examination consisted of evaluation of motor function, proprioception, and nocifensive reaction immediately before inhalation of sevoflurane, at 2, 4, 6, 8, 10, 15, 20, 25, 30, 45, and 60 minutes after the injection, and then at 30-minute intervals until 750 minutes (12.5 hours). The following is a brief description of the neurobehavioral examination.
Motor function. Motor function was evaluated by measuring the “extensor postural thrust” of the hind limbs. The rat was held upright with the hind limb extended so that the body's weight was supported by the distal metatarsus and toes. The extensor thrust was measured as the gram force applied to a digital platform balance (Ohaus Lopro, Fisher Scientific, Florham Park, N.J.), the force that resists contact of the platform by the heel. The preinjection control value (range 130-165 gram) was considered 0% of the maximal possible effect (MPE). The reduction in this force, representing reduced extensor muscle contraction due to motor blockade, was calculated as a percentage of the control force. A force less than 20 grams (also referred to as weight of the “flaccid limb”) was considered 100% MPE.
Proprioception. Proprioception evaluation was based on resting posture and postural reactions (“tactile placing” and “hopping”). The functional deficit was graded as 3 (normal) or 0% MPE, 2 (slightly impaired), 1 (severely impaired), and 0 (complete) or 100% MPE. Keeping the rat in a normal resting posture with the toes flexed and the dorsi of the feet placed on the supporting surface, we evaluated tactile placing as the ability to reposition the toes.
Hopping response was evoked by lifting the front half of the animal off the ground and then lifting one hind limb at a time off the ground so that the animal moved laterally. This process normally evokes a prompt hopping with the weight-bearing limb in the direction of movement to avoid falling over. A predominantly motor impairment causes a prompt but weaker than normal response. Conversely with a predominantly proprioceptive blockade, delayed hopping is followed by greater lateral hops to avoid falling over or, in case of full blockade, no hopping at all.
Nocifensive reaction. Nocifensive reaction was evaluated by the withdrawal reflex and/or vocalization to pinch of a skin fold over the lateral metatarsus (cutaneous pain) and of the distal phalanx of the fifth toe (deep pain). Nocifensive reaction was graded 4 (normal or 0% MPE), 3 (25% MPE), 2 (50% MPE), 1 (75% MPE), and 0 (absent or 100% MPE).

Na+ channels = assay: Whole-cell voltage clamp of Na+ currents in GH3 cells; type: cell-based, rat; conditions: for Use-dependent (additional) blockade of Na+ currents: 3 μM, high-frequency stimulation at 5 Hz, 60 pulses; for Na+ channels blocked in the inactivated state / Na+ channels blocked in the resting state: 10 μM; for Na+ channels blocked in the inactivated state: conditioning pulse of −60 mV; for Na+ channels blocked in the inactivated state / Na+ channels blocked in the resting state / IC50: GH3 cells; for Na+ channels blocked in the resting state: conditioning pulse of −150 mV; for Time to complete washout: all concentrations and all protocols
Description: The whole-cell configuration of the patch-clamp technique was used to record macroscopic Na^+ currents at room temperatures ranging from 21 to 23 degrees Celsius. Command voltages were controlled by pCLAMP software (Axons Instruments, Inc., Foster City, Calif.) and delivered by a List-EPC7 patch clamp amplifier (List-Electronic, Darmstadt/Eberstadt, Germany). After the establishment of whole-cell configuration, cells were dialyzed for 30 minutes before data were acquired. Data were filtered at 5 kHz, sampled at 50 kHz, collected, and stored with pCLAMP software. Leak and capacitance currents were subtracted by P/4 protocol, which was not applied in the use-dependent block of Na^+ currents. Pipette electrodes were filled with an internal solution containing (in mM) 100 NaF, 30 NaCl, 10 ethylene glycol-bis(β-aminoethylether)N,N,N′,N′-tetraacetic acid (EGTA), and 10 hydroxyethylpiperazineethane sulfonic acid (HEPES) titrated with CsOH to pH 7.2. The external solution consisted of (in mM) 85 choline Cl, 65 NaCl, 2 CaCl2, and 10 HEPES titrated with tetramethylammoniumhydroxide to pH 7.4. Rat clonal pituitary GH3 cells were purchased from the American Type Culture, Collection (Rockville, Md.). Cells were split twice a week and maintained in Dulbecco's modified Eagle's medium supplemented with penicillin/streptomycin (1%) and heat-inactivated fetal bovine serum (10%). The 35 mm-culture dishes in which the cells were grown were also used as a recording chamber. To determine the voltage-dependent blockade by amitriptyline or bupivacaine, a prepulse or conditioning pulse at various voltages and long enough to permit the drug-channel binding interaction to reach its steady-state level was applied (pulse protocol and representative tracings are shown in FIG. 4A). In order to determine the potency of amitriptyline and bupivacaine for the resting and inactivated states, dose-response curves were subsequently constructed at holding potentials of −150 mV and −60 mV, respectively (FIG. 5). Finally, additional blockade provoked by high-frequency stimulation (use dependent blockade) was investigated (pulse protocol and representative tracings are shown in FIG. 6A).

[1] = reportedly; cited from earlier work
[2] = single injection at 5 mM into the rat sciatic notch
[3] = holding potential −60 mV, read-out: 50% inhibitory concentration (IC50), inactivated state
[4] = holding potential −150 mV, read-out: 50% inhibitory concentration (IC50), resting state

C[N+](C)(C)CC/C=C1\c2ccccc2COc2ccccc21 [N-methyl doxepin, N-methyl doxepin bromide]
Duration for complete blockage of motor (rat sciatic nerve; 5 mM, pH 7.4): 5.0 ± 0.5 h | Duration for complete blockage of nociception (rat sciatic nerve; 5 mM, pH 7.4): 5.3 ± 0.3 h | Duration for complete blockage of proprioception (rat sciatic nerve; 5 mM, pH 7.4): 5.0 ± 0.5 h | Time to reach full recovery of motor (rat sciatic nerve; 5 mM, pH 7.4): 10.3 ± 0.2 h | Time to reach full recovery of nociception (rat sciatic nerve; 5 mM, pH 7.4): 9.9 ± 0.2 h | Time to reach full recovery of proprioception (rat sciatic nerve; 5 mM, pH 7.4): 9.5 ± 0.3 h | Development of sciatic nerve blockade after injection (rat sciatic nerve): complete sciatic nerve blockade

C[N+](C)(CCC=C1c2ccccc2CCc2ccccc21)CCc1ccccc1.[Br-] [N-phenyl-ethyl amitriptyline, N-phenyl-ethyl amitriptyline bromide]
Inhibition of sodium channels in vitro (Na+ channels): strong tonic and use-dependent inhibition | Extension of duration of complete nerve block over parent drug (rat sciatic nerve; 5 mM, 5 vs. 70 hrs): more than 10 fold | Duration of complete sciatic nerve block (rat sciatic nerve; [2]): 70 to 80 h | Full recovery of function (rat sciatic nerve; [2]): 5 to 6 days

CN(C)CCC=C1c2ccccc2CCc2ccccc21 [amitriptyline]
Use-dependent (additional) blockade of Na+ currents (Na+ channels): ~50% | Na+ channels blocked in the inactivated state (Na+ channels): > 95% | Na+ channels blocked in the resting state (Na+ channels): ~15% | Time to complete washout (Na+ channels): ≤ 5 min | IC50 (Na+ channels; [3]): 0.9 ± 0.1 µM | IC50 (Na+ channels; [4]): 141 ± 4.4 µM | Hill coefficient, inactivated state (Na+ channels; −60 mV): 1.35±0.15 | Potency relative to bupivacaine, inactivated state (Na+ channels; −60 mV): ~10 × | Hill coefficient, resting state (Na+ channels; −150 mV): 1.56±0.03 | Potency relative to bupivacaine, resting state (Na+ channels; −150 mV): ~15 × | Duration of complete blockade, motor (rat sciatic nerve; 5 mM): 168.7 ± 7.9 min | Duration of complete blockade, nociception (rat sciatic nerve; 5 mM): 217.5 ± 19.4 min | Time to full recovery of function, motor function (rat sciatic nerve; 5 mM): 270 ± 13.9 min | Time to full recovery of function, nociception (rat sciatic nerve; 5 mM): 352.5 ± 12.4 min | Time to full recovery of function, proprioception (rat sciatic nerve; 5 mM): 255.0 ± 11.3 min | Duration of complete blockade, motor (rat sciatic nerve; 10 mM): 402.9 ± 27.7 min | Duration of complete blockade, nociception (rat sciatic nerve; 10 mM): 454.8 ± 38.4 min and 454.3 ± 38.4 min | Duration of complete blockade, proprioception (rat sciatic nerve; 10 mM): 467.1 ± 35.8 min | Time to full recovery of function, motor function (rat sciatic nerve; 10 mM): 582.6 ± 32.6 min | Time to full recovery of function, nociception (rat sciatic nerve; 10 mM): 655.7 ± 27.3 min | Time to full recovery of function, proprioception (rat sciatic nerve; 10 mM): 578.6 ± 39.7 min | Onset: time to full nociceptive, motor and proprioceptive blockade (rat sciatic nerve; 0.2 ml 5 mM at sciatic nerve): 30 min | Onset: time to full nociceptive, motor and proprioceptive blockade (rat sciatic nerve; 0.2 ml 10 mM at sciatic nerve): 6 min | Development of sciatic nerve blockade after injection (rat sciatic nerve): complete sciatic nerve blockade

CCCCN1CCCCC1C(=O)Nc1c(C)cccc1C (centres unmarked) [bupivacaine]
Use-dependent (additional) blockade of Na+ currents (Na+ channels): ~14% | Na+ channels blocked in the inactivated state (Na+ channels): > 70% | Na+ channels blocked in the resting state (Na+ channels): essentially none | Time to complete washout (Na+ channels): ≤ 3 min | IC50 (Na+ channels; [3]): 9.5 ± 0.6 µM | IC50 (Na+ channels; [4]): 9.5 ± 0.6 µM | Hill coefficient, inactivated state (Na+ channels; −60 mV): 1.16±0.08 | Hill coefficient, resting state (Na+ channels; −150 mV): 1.12±0.04 | Duration of major nerve block [1]: three to twelve | Duration of complete blockade, motor (rat sciatic nerve; 15.4 mM): 87.5 ± 14.7 min | Duration of complete blockade, nociception (rat sciatic nerve; 15.4 mM): 90 ± 13.4 min | Duration of complete blockade, proprioception (rat sciatic nerve; 15.4 mM): 90 ± 13.4 min | Time to full recovery of function, motor function (rat sciatic nerve; 15.4 mM): 160.0 ± 6.3 min | Time to full recovery of function, proprioception (rat sciatic nerve; 15.4 mM): 155.0 ± 9.2 min | Onset: time to full nociceptive, motor and proprioceptive blockade (rat sciatic nerve; 0.2 ml 15.4 mM at sciatic nerve): 4 min
